These results are taken from patent publication US11524966B1 (Valo Early Discovery, Inc., priority 2017, dated 2022).

Each structure is given as a SMILES string. pIC50: −log10 of the molar value.

The term pIC50 denotes −log10 of the IC50, conventionally taken in molar units.

In this experiment the target is T1, USP28 (His-tagged USP28-FL-mammalian) (Homo sapiens, UniProt Q96RU2).
T1 construct: Expression of USP28 (1-1077)-TEV-6*His (pTT5 vector); made in house; host or cells: Expi293f cells (pTT5 vector)
T1 sequence (Q96RU2 1-1077): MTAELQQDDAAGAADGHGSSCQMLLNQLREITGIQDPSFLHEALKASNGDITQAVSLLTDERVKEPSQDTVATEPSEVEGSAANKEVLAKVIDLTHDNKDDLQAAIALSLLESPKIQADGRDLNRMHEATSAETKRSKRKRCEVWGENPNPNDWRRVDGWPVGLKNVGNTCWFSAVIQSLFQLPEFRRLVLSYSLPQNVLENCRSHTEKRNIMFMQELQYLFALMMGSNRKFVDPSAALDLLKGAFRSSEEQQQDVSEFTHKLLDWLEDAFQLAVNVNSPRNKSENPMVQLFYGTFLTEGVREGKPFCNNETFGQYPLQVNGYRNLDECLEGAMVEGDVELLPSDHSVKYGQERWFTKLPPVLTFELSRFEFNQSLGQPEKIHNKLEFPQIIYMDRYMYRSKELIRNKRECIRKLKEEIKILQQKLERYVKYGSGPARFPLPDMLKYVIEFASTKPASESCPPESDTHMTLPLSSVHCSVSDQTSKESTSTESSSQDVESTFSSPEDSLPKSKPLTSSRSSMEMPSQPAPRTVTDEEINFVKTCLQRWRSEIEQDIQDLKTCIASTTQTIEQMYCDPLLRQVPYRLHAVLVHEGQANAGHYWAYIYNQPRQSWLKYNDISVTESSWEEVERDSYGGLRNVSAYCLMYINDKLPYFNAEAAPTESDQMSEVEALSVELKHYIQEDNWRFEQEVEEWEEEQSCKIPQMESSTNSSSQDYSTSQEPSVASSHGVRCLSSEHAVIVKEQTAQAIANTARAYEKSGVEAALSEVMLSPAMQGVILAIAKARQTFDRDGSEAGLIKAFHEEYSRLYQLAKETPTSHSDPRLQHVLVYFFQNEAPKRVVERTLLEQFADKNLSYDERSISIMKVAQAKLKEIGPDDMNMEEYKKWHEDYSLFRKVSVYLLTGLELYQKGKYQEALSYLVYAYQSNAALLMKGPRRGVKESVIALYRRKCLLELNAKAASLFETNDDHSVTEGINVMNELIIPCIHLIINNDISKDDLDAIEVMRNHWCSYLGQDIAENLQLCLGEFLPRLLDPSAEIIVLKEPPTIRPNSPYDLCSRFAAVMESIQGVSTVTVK
The experiment can be described thus: Ubiquitin-Rhodamine 110 Assay for USP28 Activity, Example A-1(a). Format: biochemical. Conditions: Ubiquitin-Rhodamine 110 assay, Example A-1(a); read-out: USP28 A-1(a) IC50 range. The method, boiled down: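 Full-length His-tagged USP28 (1-1077, Expi293F-expressed; […]) was preincubated 30 min with compound (25 μM–1.3 nM, 10-point 3-fold) in 20 mM Tris-HCl pH 8.0, 3 mM BME, 0.03% BGG, 0.01% Triton X-100. Ub-Rh110 (25 nM) was then added for 45 min at room temperature, stopped with citric acid, and read by fluorescence (485/535 nm).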
As for `Cc1ccc2c(N)c(C(=O)N[C@H]3COc4cc([C@@H]5CCNC[C@H]5F)ccc4C3)sc2n1` [Example 81, 3-amino-N-((R)-7-((3S,4S)-3-fluoropiperidin-4-yl)chroman-3-yl)-6-methylthieno[2,3-b]pyridine-2-carboxamide], the pIC50 was 7.30 to 9.00.
For the compound `CCc1cnc2sc(C(=O)N[C@@H]3COc4cc(N5CCNCC5)ccc4C3)c(N)c2n1` [Example 37, (S)-7-amino-2-ethyl-N-(7-(piperazin-1-yl)chroman-3-yl)thieno[2,3-b]pyrazine-6-carboxamide], the pIC50 is less than 5.70.
For `Cc1ccc2c(N)c(C(=O)N[C@H]3COc4c(F)c(N5CCNCC5)cc(F)c4C3)oc2n1` [Example 68, (R)-3-amino-N-(5,8-difluoro-7-(piperazin-1-yl)chroman-3-yl)-6-methylfuro[2,3-b]pyridine-2-carboxamide], the pIC50 is 5.70 to 6.70.
`Cc1ccc2c(N)c(C(=O)N[C@H]3COc4cc([C@@H]5CCNCC5(F)F)ccc4C3)sc2n1` [Example 70, 3-amino-N-((R)-7-((S)-3,3-difluoropiperidin-4-yl)chroman-3-yl)-6-methylthieno[2,3-b]pyridine-2-carboxamide]: the pIC50 was 7.30 to 9.00.
The same measure for `CO[C@H]1CN(c2ccc3c(c2F)OC[C@H](NC(=O)c2sc4nc(C)ccc4c2N)C3)C[C@@H]1N` [Example 92, 3-amino-N-[(3R)-7-[(3S,4S)-3-amino-4-methoxypyrrolidin-1-yl]-8-fluoro-3,4-dihydro-2H-1-benzopyran-3-yl]-6-methylthieno[2,3-b]pyridine-2-carboxamide]: 7.30 to 9.00; for `O=C(N[C@H]1COc2cc(N3CCNCC3)ccc2C1)c1cnc2c(ccn2C(F)F)c1` [Example 38, (R)-1-(difluoromethyl)-N-(7-(piperazin-1-yl)chroman-3-yl)-1H-pyrrolo[2,3-b]pyridine-5-carboxamide]: 5.70 to 6.70; for `O=C(N[C@H]1COc2c(F)c(N3CC4CCC(C3)N4)cc(F)c2C1)c1cnc2c(c1)[C@@H]1C[C@@H]1CN2` [Example 89, (1aS, 7bR)-N-((3R)-7-(3 8-diazabicyclo[3.2.1]octan-3-yl)-5,8-difluorochroman-3-yl)-1a,2,3,7b-tetrahydro-1H-cyclopropa[c][1,8]naphthyridine-6-carboxamide]: 7.30 to 9.00.
In the case of `O=C(N[C@H]1COc2cc(N3CCNCC3)ccc2C1)c1cnc2c(ccn2Cc2ccccc2)c1` [Example 59, (R)-1-benzyl-N-(7-(piperazin-1-yl)chroman-3-yl)-1H-pyrrolo[2,3-b]pyridine-5-carboxamide] it was 7.30 to 9.00; in that of `Cc1ccc2c(N)c(C(=O)N[C@H]3COc4cc(N5C[C@H]6CC[C@@H]5CN6)ncc4C3)sc2n1` [Example 76, N-((R)-7-((1 R,4R)-2,5-diazabicyclo[2.2.2]octan-2-yl)-3,4-dihydro-2H-pyrano[3,2-c]pyridin-3-yl)-3-amino-6-methylthieno[2,3-b]pyridine-2-carboxamide], 7.30 to 9.00.
The same measure for `Cc1cnc2c(N)c(C(=O)N[C@H]3CCc4nc(N5CC6CC(C5)N6)ccc4C3)sc2n1` [Example 23-11, 7-amino-N-[(6S)-2-{3,6-diazabicyclo[3.1.1]heptan-3-yl}-5,6,7,8-tetrahydroquinolin-6-yl]-3-methylthieno[2,3-b]pyrazine-6-carboxamide]: 5.70 to 6.70; for `C[C@@H](Nc1ccc(C(=O)N[C@H]2COc3cc(N4CCNCC4)ccc3C2)cn1)c1ccccc1` [Example 54, 6-(((R)-1-phenylethyl)amino)-N-((R)-7-(piperazin-1-yl)chroman-3-yl)nicotinamide]: less than 5.70.
Turning to `C[C@@H]1CCc2cc(C(=O)N[C@H]3COc4cc(N5CC6CCC(C5)N6)ccc4C3)cnc2N1` [Example 74, (7R)-N-((3R)-7-(3,8-diazabicyclo[3.2.1]octan-3-yl)chroman-3-yl)-7-methyl-5,6,7,8-tetrahydro-1,8-naphthyridine-3-carboxamide], the pIC50 was 6.70 to 7.30.
As for `Cc1nc2sc(C(=O)N[C@@H]3COc4cc(N5CC6CCC(C5)N6)c(F)cc4C3)c(N)c2s1` [Example 46, N-((3S)-7-(3 8-diazabicyclo[3.2.1]octan-3-yl)-6-fluorochroman-3-yl)-6-amino-2-methylthieno[2,3-d]thiazole-5-carboxamide], the pIC50 is 7.30 to 9.00.
The same measure for `Cc1ccc2c(N)c(C(=O)N[C@H]3COc4c(F)c(N5CC6CNCC(C5)O6)cc(F)c4C3)sc2n1` [Example 78, N-((3R)-7-(9-oxa-3,7-diazabicyclo[3.3.1]nonan-3-yl)-5,8-difluorochroman-3-yl)-3-amino-6-methylthieno[2,3-b]pyridine-2-carboxamide]: 7.30 to 9.00; for `Cc1nc2sc(C(=O)N[C@H]3COc4c(F)c(N5CCNCC5)cc(F)c4C3)c(N)c2s1` [Example 56, (R)-6-amino-N-(5,8-difluoro-7-(piperazin-1-yl)chroman-3-yl)-2-methylthieno[2,3-d]thiazole-5-carboxamide]: 7.30 to 9.00; for `C[C@H](Nc1ccc(C(=O)N[C@H]2COc3cc(N4CCNCC4)ccc3C2)cn1)c1ccccc1` [Example 53, 6-(((S)-1-phenylethyl)amino)-N-((R)-7-(piperazin-1-yl)chroman-3-yl)nicotinamide]: less than 5.70.
On to `Cc1cc(C)c2c(N)c(C(=O)N[C@H]3CCc4nc(N5CCNCC5)ccc4C3)sc2n1` [Example 23-14, 3-amino-4,6-dimethyl-N-[(6S)-2-(piperazin-1-yl)-5,6,7,8-tetrahydroquinolin-6-yl]thieno[2,3-b]pyridine-2-carboxamide], for which the pIC50 is 7.30 to 9.00.
The same measure for `CO[C@@H]1CN(c2ccc3c(c2F)OC[C@H](NC(=O)c2sc4nc(C)ccc4c2N)C3)C[C@H]1N` [Example 91, 3-amino-N-[(3R )-7-[(3R,4R)-3-amino-4-methoxypyrrolidin-1-yl]-8-fluoro-3,4-dihydro-2H-1-benzopyran-3-yl]-6-methylthieno[2,3-b]pyridine-2-carboxamide]: 6.70 to 7.30; for `Cc1ccc2c(N)c(C(=O)N[C@H]3COc4cc(N5C[C@@H]6CC[C@H]5CN6)ncc4C3)sc2n1` [Example 75, N-((R)-7-((1S, 4S)-2 5-diazabicyclo[2.2.2]octan-2-yl)-3,4-dihydro-2H-pyrano[3,2-c]pyridin-3-yl)-3-amino-6-methylthieno[2,3-b]pyridine-2-carboxamide]: 7.30 to 9.00.
Consider `O=C(N[C@@H]1COc2cc(N3CCNCC3)ccc2C1)c1cnc2c(ccn2C(F)F)c1` [Example 39, (S)-1-(difluoromethyl)-N-(7-(piperazin-1-yl)chroman-3-yl)-1H-pyrrolo[2,3-b]pyridine-5-carboxamide], for which the pIC50 is less than 5.70.
As to `COC[C@@H]1CN(c2ccc3c(n2)CC[C@H](NC(=O)c2sc4nc(C)ccc4c2N)C3)C[C@@H]1N` (single isomer, unassigned) [Example 24-1], the pIC50 was 6.70 to 7.30.
On to `CCn1ccc2cc(C(=O)N[C@H]3COc4c(F)c([C@H]5CCNC[C@H]5O)cc(F)c4C3)nnc21` [Example 85, N-((R)-5,8-difluoro-7-((3S,4R)-3-hydroxypiperidin-4-yl)chroman-3-yl)-7-ethyl-7H-pyrrolo[2,3-c]pyridazine-3-carboxamide], for which the pIC50 was 5.70 to 6.70.
For `O=C(N[C@H]1COc2cc(N3CC4CCC(C3)N4)ccc2C1)c1cnc2c(c1)CCCN2` [Example 50, N-((3R)-7-(3,8-diazabicyclo[3.2.1]octan-3-yl)chroman-3-yl)-5,6,7,8-tetrahydro-1,8-naphthyridine-3-carboxamide], the pIC50 was 6.70 to 7.30.
The same measure for `Cc1ccc2c(N)c(C(=O)N[C@H]3COc4cc(N5CCNCC5)cc(Cl)c4C3)sc2n1` [Example 48, (R)-3-amino-N-(5-chloro-7-(piperazin-1-yl)chroman-3-yl)-6-methylthieno[2,3-b]pyridine-2-carboxamide]: 7.30 to 9.00.
As to `Cc1ccc2c(N)c(C(=O)N[C@H]3COc4c(F)c(N5CCNCC5)cc(F)c4C3)sc2n1` [Example 55, (R)-3-amino-N-(5,8-difluoro-7-(piperazin-1-yl)chroman-3-yl)-6-methylthieno[2,3-b]pyridine-2-carboxamide], the pIC50 is 7.30 to 9.00.
With `Nc1c(C(=O)N[C@H]2COc3cc(N4CCNCC4)ccc3C2)sc2nc(C3CC3)sc12` [Example 45], the pIC50 was 6.70 to 7.30.
